In US7892755B2, “Screening method” (Takeda Pharmaceutical Company Limited, priority 2004, dated 2011):

Key:
Type in all cases: cell-based
GPR35 [1] = molecular target: T1, GPR35 (Homo sapiens, UniProt Q9HC97, S294R); assay: Suppression of forskolin-increased intracellular cAMP levels in human GPR35-expressed CHO cell line; design: The resulting fragment (ca. 1 kb) was introduced into vector pAKKO-111; expressed in transfected cells; settings: 2 μM forskolin, 37° C., 30 minutes (FIG. 3)
Description: The human GPR35-expressed CHO cells obtained in REFERENCE EXAMPLE 1 were washed with an assay buffer (HBSS (Gibco/BRL) supplemented with 0.1% bovine serum albumin and 0.2 mM isobutylmethylxanthine), followed by incubation at 37° C. for 30 minutes under conditions of 5% CO2. DNQX and NBQX were diluted with the assay buffer and the dilutions were added to the cells at respective concentrations. Thereafter forskolin was added to become 2 μM. Incubation was performed at 37° C. for 30 minutes under conditions of 5% CO2. The culture supernatant was discarded and the intracellular cAMP level was assayed on a plate reader (EnVision, Perkin Elmer) in accordance with the protocol of cAMP Screen Kit (Applied Biosystems).

human TGR23 = molecular target: T2, human TGR23 (Homo sapiens, UniProt Q6W5P4); assay: MAPK phosphorylation in control cells (human TGR23-expressed CHO cells)
T2 construct: expressed in transfected cells; host or cells: CHO cells
T2 sequence (Q6W5P4 1-371): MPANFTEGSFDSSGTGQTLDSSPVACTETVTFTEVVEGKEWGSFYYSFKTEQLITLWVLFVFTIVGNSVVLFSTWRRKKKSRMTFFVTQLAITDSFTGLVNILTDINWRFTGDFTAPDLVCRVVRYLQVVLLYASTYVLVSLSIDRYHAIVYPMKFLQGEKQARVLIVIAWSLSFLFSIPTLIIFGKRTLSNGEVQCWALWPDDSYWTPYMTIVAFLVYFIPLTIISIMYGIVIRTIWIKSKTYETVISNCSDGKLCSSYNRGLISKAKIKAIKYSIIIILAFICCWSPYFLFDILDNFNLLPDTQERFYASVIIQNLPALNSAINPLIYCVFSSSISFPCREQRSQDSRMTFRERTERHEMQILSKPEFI

GPR35 [2] = molecular target: T1, GPR35; assay: MAPK phosphorylation (western blot, phospho-p44/42 MAP kinase) in human GPR35-expressed CHO cells; design: The resulting fragment (ca. 1 kb) was introduced into vector pAKKO-111; expressed in transfected cells; settings: stimulation with 1-5 μM, 5 minutes
Description: The human GPR35-expressed CHO cells prepared in REFERENCE EXAMPLE 1 were incubated for 48 hours in a 12-well plate at 5×10^4 cells/well. MEMα (containing no nucleic acid) supplemented with 10% dialyzed FBS was used as a medium. After the medium was removed by suction, the cells were washed with 1 ml (×2) of serum-free medium and 500 μl of the serum-free medium was added thereto, followed by incubation at 37° C. for 16 hours. DNQX or NBQX was added to the cells at its optimum concentration, followed by incubation at 37° C. for 5 minutes. Immediately after the medium was removed by suction, 50 μl of Blue Loading Buffer (BioLabs) was added, the cells were lysed and taken up by pipetting. The cell lysate was destructed using a sonicator (Sono Cleaner; KAIJO DENKI) and then heat-treated at 95° C. for 5 minutes. Centrifugation (15,000 rpm, 4° C., 5 minutes) was made and the supernatant was used as a final sample.
After 10 μl of the sample was electrophoresed on 10% SDS-PAGE, the sample was transferred to a PVDF membrane by western blotting. The membrane was immersed in Block Ace (manufactured by Dainippon Pharmaceutical Co., Ltd.) and then shaken for an hour at room temperature. […] The membrane was applied to a fluorescence detector (LAS-1000; FUJI FILM) in accordance with the protocol of ECLplus Western Blotting System (Amersham Biosciences). […]

T1 sequence (Q9HC97 whole entry S294R, the tested form may be a part): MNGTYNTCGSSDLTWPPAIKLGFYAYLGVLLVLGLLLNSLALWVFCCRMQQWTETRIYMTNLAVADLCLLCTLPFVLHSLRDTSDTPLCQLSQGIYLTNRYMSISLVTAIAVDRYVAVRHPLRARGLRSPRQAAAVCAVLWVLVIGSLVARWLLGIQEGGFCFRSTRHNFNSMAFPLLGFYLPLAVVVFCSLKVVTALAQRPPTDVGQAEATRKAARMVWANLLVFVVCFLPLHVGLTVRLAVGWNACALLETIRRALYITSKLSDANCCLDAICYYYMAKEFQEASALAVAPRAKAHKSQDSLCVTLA

**Q.** With `O=C1N=c2cc([N+](=O)[O-])c([N+](=O)[O-])cc2=NC1=O` [DNQX, 6,7-dinitroquinoxaline-2,3-dione] as the molecule, how does the “decrease of intracellular cAMP levels increased by forskolin addition” value (GPR35 [1]) read?
**A.** dose-dependent and specific decrease

**Q.** What about the “level of phosphorylated MAP-kinase in control cells” value (human TGR23) of the same molecule?
**A.** any enhanced level of phosphorylation was not observed

**Q.** What about the “level of phosphorylated MAP-kinase” value (GPR35 [2]) of the same molecule?
**A.** enhanced

**Q.** `NS(=O)(=O)c1cccc2c3c(cc([N+](=O)[O-])c12)=NC(=O)C(=O)N=3` [NBQX, 6-nitro-7-sulfamoylbenzo[f]quinoxaline-2,3-dione] was tested. Which “decrease of intracellular cAMP levels increased by forskolin addition” value (GPR35 [1]) did it give?
**A.** dose-dependent and specific decrease

**Q.** And the “level of phosphorylated MAP-kinase in control cells” value (human TGR23)?
**A.** any enhanced level of phosphorylation was not observed

**Q.** What about the “level of phosphorylated MAP-kinase” value (GPR35 [2]) of the same molecule?
**A.** enhanced
